Among the data in publication PMC6721765, “Synthesis of Daidzein Glycosides, α-Tocopherol Glycosides, Hesperetin Glycosides by Bioconversion and Their Potential for Anti-Allergic Functional-Foods and Cosmetics” (Molecules, 2019) are IC50 and inhibition values, retold here.

Assay [1] has as its target Mushroom tyrosinase (EC 1.14.18.1). The experiment in a line: Tyrosinase assay (dopachrome formation at 475 nm). Type of assay: biochemical. As to conditions: L-DOPA or L-tyrosine as substrate, pH 6.8, 30 °C, mean ± standard deviation from triplicate experiments, read-out: Tyrosinase Inhibitory Activity IC50. How it is done: Mushroom tyrosinase (EC 1.14.18.1) (Sigma-Aldrich Chemical Co., St. Louis, MO, USA) was used for the tyrosinase assay, with either L-DOPA or L-tyrosine as a substrate. In spectrophotometric experiments, enzyme activity was taken as the initial velocity (Vi) monitored by observing dopachrome formation at 475 nm with a UV spectrophotometer at 30 °C. All samples were dissolved in ethanol at 10 mM. First, 200 μL of a 2.7 mM L-tyrosine or 5.4 mM L-DOPA aqueous solution was mixed with 2687 μL of 0.25 M phosphate buffer (pH 6.8). Next, 100 μL of the sample solution and 13 μL of the same phosphate buffer solution containing mushroom tyrosinase (144 units) were added to the mixture.

The test system of assay [2] is rat peritoneal mast cells. The experiment in a line: Inhibition of compound 48/80-induced histamine release from rat peritoneal mast cells. The class given is cell-based. As to conditions: Mast cell. The protocol: The %inhibition of hesperetin 3′-β-glucoside (9) and hesperetin 7-β-glucoside (10) was higher than that of hesperetin (8). […] The inhibitory activity toward histamine release of hesperetin 7-β-gentiobioside (12) was stronger than hesperetin diglucoside 11. The anti-allergic activities were examined at pH 7.4 and 37 °C according to the reported methods. The pH and temperature of the reaction mixture may have an effect on anti-allergic activities. Effects of pH and temperature on anti-allergic activities of the obtained glycosides should be investigated and reported on in the near future.
The effects of daidzein, α-tocopherol, hesperetin, and their glycosides on compound 48/80-induced histamine release from rat peritoneal mast cells were examined as follows. Peritoneal mast cells were collected from the abdominal cavities of rats (Male Wistar rats, Nippon SLC) and purified to a level higher than 95%. The purified mast cells were suspended in a physiological buffered solution (PBS) containing 145 mM NaCl, 2.7 mM KCl, 1.0 mM CaCl2, 5.6 mM glucose, and 20 mM 4-(2-hydroxyethyl)-1-piperazineethanesulfonic acid (HEPES) (pH 7.4) to give approximately 10^4 mast cells/mL. Cell viability was always greater than 90% as judged by the trypan blue exclusion test. Mast cells were preincubated with the test compound (1 μM) for 15 min at 37 °C, and subsequently exposed to compound 48/80 at 0.35 μg/mL. Histamine release was determined by a fluorometric assay, and was expressed as a percentage of total histamine.

The mark [3] stands for this setting: test compound 1 μM, preincubated 15 min at 37 °C, pH 7.4, compound 48/80 at 0.35 μg/mL, Male Wistar rat peritoneal mast cells, read-out: Histamine Release-Inhibiting Activity / %inhibition.
Setting [4] is: Rattus norvegicus, pH 7.4, read-out: Histamine Release-Inhibiting Activity / %inhibition.

Where two headings read alike, the source gives them in different places.

By IC50 is commonly meant the concentration at which inhibition is half-maximal.

For the compound `O=c1c(-c2ccc(O)cc2)coc2cc(O)ccc12` [Compound 1, daidzein], in assay [1], the IC50 was 392 ± 88 µM. Besides, in assay [2] (setting [3]), the inhibition at 1 µM stood at 58%. As for `O=c1c(-c2ccc(O)cc2)coc2cc(OC3OC(CO)C(O)C(O)C3O)ccc12` (stereo not drawn) [Compound 2, daidzein 7-β-glucoside], the IC50 in assay [1] worked out at 303 ± 45 µM. The inhibition at 1 µM in assay [2] (setting [4]) was 62%. `O=c1c(-c2ccc(O)cc2)coc2cc(OC3OC(COC4OC(CO)C(O)C(O)C4O)C(O)C(O)C3O)ccc12` (stereo not drawn) [Compound 3, daidzein 7-β-gentiobioside]: in assay [1], the 50% inhibitory concentration (IC50) turned out to be 280 ± 33 µM. Also, the inhibition at 1 µM in assay [2] (setting [3]) came out at 67%. As to `O=c1c(-c2ccc(O[C@@H]3O[C@H](CO)[C@H](O)[C@H](O)[C@H]3O)cc2)coc2cc(O)ccc12` [Compound 4, daidzein 4′-β-galactoside], in assay [1], the IC50 is 125 ± 41 µM. The inhibition at 1 µM in assay [2] (setting [3]) stood at 70%. Take `O=c1c(-c2ccc(O)cc2)coc2cc(O[C@@H]3O[C@H](CO)[C@H](O)[C@H](O)[C@H]3O)ccc12` [Compound 5, daidzein 7-β-galactoside]: the IC50 in assay [1] turned out to be 102 ± 39 µM. Moreover, the inhibition at 1 µM in assay [2] (setting [4]) stood at 76%. On to `Cc1c(C)c2c(c(C)c1O)CC[C@@](C)(CCC[C@H](C)CCC[C@H](C)CCCC(C)C)O2` [Compound 6, α-tocopherol], for which the 50% inhibitory concentration (IC50) in assay [1] turned out to be 510 ± 108 µM. Also, in assay [2] (setting [3]), the inhibition at 1 µM came out at 61%.

Consider `Cc1c(C)c2c(c(C)c1O[C@@H]1O[C@H](CO)[C@H](O)[C@H](O)[C@H]1O)CC[C@@](C)(CCC[C@H](C)CCC[C@H](C)CCCC(C)C)O2` [Compound 7, α-tocopherol 6-β-galactoside], for which the 50% inhibitory concentration (IC50) in assay [1] was determined as 54 ± 25 µM. Also, the inhibition at 1 µM in assay [2] (setting [3]) turned out to be 82%. Take `COc1ccc([C@@H]2CC(=O)c3c(O)cc(O)cc3O2)cc1O` [Compound 8, hesperetin]: in assay [1], the IC50 was 437 ± 76 µM. In addition, the inhibition at 1 µM in assay [2] (setting [3]) was 38%.

On to `COc1ccc(C2CC(=O)c3c(O)cc(O)cc3O2)cc1OC1OC(CO)C(O)C(O)C1O` (stereo not drawn) [Compound 9, hesperetin 3′-β-glucoside], for which the IC50 in assay [1] was determined as 355 ± 32 µM. In addition, in assay [2] (setting [3]), the inhibition at 1 µM was 40%. With `COc1ccc(C2CC(=O)c3c(O)cc(OC4OC(CO)C(O)C(O)C4O)cc3O2)cc1O` (stereo not drawn) [Compound 10, hesperetin 7-β-glucoside], the IC50 in assay [1] was determined as 318 ± 27 µM. In addition, the inhibition at 1 µM in assay [2] (setting [3]) was found to be 45%. For `COc1ccc(C2CC(=O)c3c(O)cc(OC4OC(CO)C(O)C(O)C4O)cc3O2)cc1OC1OC(CO)C(O)C(O)C1O` (stereo not drawn) [Compound 11, hesperetin 3′,7-β-diglucoside] the same measures were 176 ± 35 µM and 63%.

For the compound `COc1ccc(C2CC(=O)c3c(O)cc(OC4OC(COC5OC(CO)C(O)C(O)C5O)C(O)C(O)C4O)cc3O2)cc1O` (stereo not drawn) [Compound 12, hesperetin 7-β-gentiobioside], the IC50 in assay [1] was 139 ± 14 µM. The inhibition at 1 µM in assay [2] (setting [3]) is 69%. In the case of `O=c1c(O)c(-c2ccc(O)cc2)oc2cc(O)cc(O)c12` [Kaempferol, reference compound], the inhibition at 1 µM in assay [2] (setting [3]) is 80%.
